In the NIST ThermoML archive (doi:10.1021/je600554h):

Test: xn = mol fraction of the nth substance listed
Conditions: Liquid; for viscosity: 100 kPa, Capillary tube (Ostwald / Ubbelohde) method; for mass density: 1000 kPa, Vibrating tube method

COC(C)(C)C [2-methoxy-2-methylpropane] + CCCCCCC
Conditions	mass density [kg/m3]	viscosity [mPa·s]
273.15 K, x1 = 0.1004	–	0.515
273.15 K, x1 = 0.1042	705.19	–
273.15 K, x1 = 0.1998	–	0.507
273.15 K, x1 = 0.2146	710.4	–
273.15 K, x1 = 0.3008	–	0.494
273.15 K, x1 = 0.3024	714.67	–
273.15 K, x1 = 0.3982	719.73	–
273.15 K, x1 = 0.4024	–	0.485
273.15 K, x1 = 0.4996	725.44	–
273.15 K, x1 = 0.5007	–	0.476
273.15 K, x1 = 0.5875	730.85	–
273.15 K, x1 = 0.5989	–	0.468
273.15 K, x1 = 0.6981	–	0.462
273.15 K, x1 = 0.6985	738.08	–
273.15 K, x1 = 0.7887	–	0.456
273.15 K, x1 = 0.794	744.8	–
273.15 K, x1 = 0.889	752	–
273.15 K, x1 = 0.898	–	0.448
278.15 K, x1 = 0.1004	–	0.484
278.15 K, x1 = 0.1042	700.96	–
278.15 K, x1 = 0.1998	–	0.474
278.15 K, x1 = 0.2146	706.09	–
278.15 K, x1 = 0.3008	–	0.464
278.15 K, x1 = 0.3024	710.3	–
278.15 K, x1 = 0.3982	715.27	–
278.15 K, x1 = 0.4024	–	0.456
278.15 K, x1 = 0.4996	720.9	–
278.15 K, x1 = 0.5007	–	0.448
278.15 K, x1 = 0.5875	726.22	–
278.15 K, x1 = 0.5989	–	0.44
278.15 K, x1 = 0.6981	–	0.433
278.15 K, x1 = 0.6985	733.34	–
278.15 K, x1 = 0.7887	–	0.427
278.15 K, x1 = 0.794	739.96	–
278.15 K, x1 = 0.889	747.05	–
278.15 K, x1 = 0.898	–	0.421
283.15 K, x1 = 0.1004	–	0.455
283.15 K, x1 = 0.1042	696.72	–
283.15 K, x1 = 0.1998	–	0.446
283.15 K, x1 = 0.2146	701.76	–
283.15 K, x1 = 0.3008	–	0.437
283.15 K, x1 = 0.3024	705.9	–
283.15 K, x1 = 0.3982	710.79	–
283.15 K, x1 = 0.4024	–	0.429
283.15 K, x1 = 0.4996	716.32	–
283.15 K, x1 = 0.5007	–	0.422
283.15 K, x1 = 0.5875	721.55	–
283.15 K, x1 = 0.5989	–	0.414
283.15 K, x1 = 0.6981	–	0.408
283.15 K, x1 = 0.6985	728.56	–
283.15 K, x1 = 0.7887	–	0.403
283.15 K, x1 = 0.794	735.08	–
283.15 K, x1 = 0.889	742.07	–
283.15 K, x1 = 0.898	–	0.397
288.15 K, x1 = 0.1004	–	0.429
288.15 K, x1 = 0.1042	692.45	–
288.15 K, x1 = 0.1998	–	0.421
288.15 K, x1 = 0.2146	697.4	–
288.15 K, x1 = 0.3008	–	0.413
288.15 K, x1 = 0.3024	701.47	–
288.15 K, x1 = 0.3982	706.28	–
288.15 K, x1 = 0.4024	–	0.405
288.15 K, x1 = 0.4996	711.72	–
288.15 K, x1 = 0.5007	–	0.398
288.15 K, x1 = 0.5875	716.86	–
288.15 K, x1 = 0.5989	–	0.391
288.15 K, x1 = 0.6981	–	0.385
288.15 K, x1 = 0.6985	723.76	–
288.15 K, x1 = 0.7887	–	0.38
288.15 K, x1 = 0.794	730.17	–
288.15 K, x1 = 0.889	737.04	–
288.15 K, x1 = 0.898	–	0.375
293.15 K, x1 = 0.1004	–	0.406
293.15 K, x1 = 0.1042	688.15	–
293.15 K, x1 = 0.1998	–	0.398
293.15 K, x1 = 0.2146	693.02	–
293.15 K, x1 = 0.3008	–	0.39
293.15 K, x1 = 0.3024	697.02	–
293.15 K, x1 = 0.3982	701.73	–
293.15 K, x1 = 0.4024	–	0.383
293.15 K, x1 = 0.4996	707.09	–
293.15 K, x1 = 0.5007	–	0.376
293.15 K, x1 = 0.5875	712.13	–
293.15 K, x1 = 0.5989	–	0.369
293.15 K, x1 = 0.6981	–	0.364
293.15 K, x1 = 0.6985	718.92	–
293.15 K, x1 = 0.7887	–	0.359
293.15 K, x1 = 0.794	725.22	–
293.15 K, x1 = 0.889	731.98	–
298.15 K, x1 = 0.1004	–	0.384
298.15 K, x1 = 0.1042	683.83	–
298.15 K, x1 = 0.1998	–	0.377
298.15 K, x1 = 0.2146	688.62	–
298.15 K, x1 = 0.3008	–	0.37
298.15 K, x1 = 0.3024	692.54	–
298.15 K, x1 = 0.3982	697.16	–
298.15 K, x1 = 0.4024	–	0.363
298.15 K, x1 = 0.4996	702.42	–
298.15 K, x1 = 0.5007	–	0.357
298.15 K, x1 = 0.5875	707.37	–
298.15 K, x1 = 0.6985	714.04	–
298.15 K, x1 = 0.794	720.23	–
298.15 K, x1 = 0.889	726.87	–
303.15 K, x1 = 0.1004	–	0.365
303.15 K, x1 = 0.1042	679.49	–
303.15 K, x1 = 0.1998	–	0.358
303.15 K, x1 = 0.2146	684.18	–
303.15 K, x1 = 0.3008	–	0.351
303.15 K, x1 = 0.3024	688.02	–
303.15 K, x1 = 0.3982	692.55	–
303.15 K, x1 = 0.4024	–	0.344
303.15 K, x1 = 0.4996	697.72	–
303.15 K, x1 = 0.5875	702.57	–
303.15 K, x1 = 0.6985	709.11	–
303.15 K, x1 = 0.794	715.19	–
303.15 K, x1 = 0.889	721.72	–
308.15 K, x1 = 0.1004	–	0.347
308.15 K, x1 = 0.1042	675.12	–
308.15 K, x1 = 0.1998	–	0.34
308.15 K, x1 = 0.2146	679.71	–
308.15 K, x1 = 0.3024	683.48	–
308.15 K, x1 = 0.3982	687.91	–
308.15 K, x1 = 0.4996	692.98	–
308.15 K, x1 = 0.5875	697.73	–
308.15 K, x1 = 0.6985	704.14	–
308.15 K, x1 = 0.794	710.11	–
313.15 K, x1 = 0.1004	–	0.33
313.15 K, x1 = 0.1042	670.71	–
313.15 K, x1 = 0.2146	675.19	–
313.15 K, x1 = 0.3024	678.89	–
313.15 K, x1 = 0.3982	683.23	–
313.15 K, x1 = 0.4996	688.2	–
313.15 K, x1 = 0.5875	692.85	–
313.15 K, x1 = 0.6985	699.12	–
318.15 K, x1 = 0.1042	666.28	–
318.15 K, x1 = 0.2146	670.65	–
318.15 K, x1 = 0.3024	674.26	–
318.15 K, x1 = 0.3982	678.51	–
318.15 K, x1 = 0.4996	683.38	–
318.15 K, x1 = 0.5875	687.92	–
323.15 K, x1 = 0.1042	661.8	–
323.15 K, x1 = 0.2146	666.08	–
323.15 K, x1 = 0.3024	669.6	–
323.15 K, x1 = 0.3982	673.75	–
323.15 K, x1 = 0.4996	678.5	–
328.15 K, x1 = 0.1042	657.27	–
328.15 K, x1 = 0.2146	661.46	–
328.15 K, x1 = 0.3024	664.89	–
328.15 K, x1 = 0.3982	668.93	–
333.15 K, x1 = 0.1042	652.74	–
333.15 K, x1 = 0.2146	656.77	–
333.15 K, x1 = 0.3024	660.13	–
338.16 K, x1 = 0.1042	648.13	–
338.16 K, x1 = 0.2146	652.07	–
343.16 K, x1 = 0.1042	643.27	–
